Reference: patent US20170240535A1, “HDAC1/2 INHIBITORS FOR THE TREATMENT OF NEURODEGENERATIVE AND/OR COGNITIVE DISORDERS” (Regenacy Pharmaceuticals, LLC, priority 2016, published 2017)
Where two headings read alike, the source gives them in different places.

Assay: Pharmacokinetics of Compound 1 in plasma and brain after IP and PO administration (discrete PK)
Assay type: in vivo
Conditions: male C57BL/6 mice; for Kp / Cmax / Tmax / half-life / AUC(0-inf) / AUC(0-t): mouse; for Kp: brain/plasma, read-out: AUCbrain/AUCplasma; for half-life: read-out: Terminal t1/2 (converted)
Protocol: Male C57Bl/6 mice were fasted overnight. Compound 1 was dissolved in 20% HydroxyPropyl-β-Cyclodextran in water. Fifteen animals per experimental arm were dosed by intraperitoneal injection or by oral gavage. Blood was collected via retro orbital puncture into K2EDTA tubes at 5 minutes, 15 minutes, 30 minutes, 1 hour, 2 hours, 4 hours, 8 hours and 24 hours after dosing. The blood was centrifuged at 2000 g for 5 minutes at 4° C. to obtain plasma. The plasma was extracted with acetonitrile and the level of compound was analyzed by LC/MS/MS. The level of compound in plasma was calculated from a standard curve in mouse plasma. For brain levels, animals were sacrificed at 15 minutes, 1 hour, 4 hours, 8 hours and 24 hours. Brains were removed and homogenized in acetonitrile and extracted. The level of compound in brain was calculated from a standard curve in mouse brain tissue. The maximum concentration, half-life and area under the curve were calculated using WinNonLin software. The ratio of area under the curve for plasma and brain samples was calculated to produce the brain/plasma ratio.

Compound: Nc1ccc(-c2ccccc2)cc1NC(=O)c1cc2ccc(N3CCNCC3)cc2cn1 [Compound 1]
- brain penetrance (from brain/plasma AUC ratios) (IP or PO, 3 and 10 mg/kg): highly brain penetrant
- AUCINF-brain (brain, IP 3 mg/kg): 21015 ng·h/g
- AUClast-brain (brain, IP 3 mg/kg): 19737 ng·h/g
- AUCINF-brain (brain, IP 10 mg/kg): 87609 ng·h/g
- AUClast-brain (brain, IP 10 mg/kg): 78978 ng·h/g
- AUCINF-brain (brain, PO 3 mg/kg): 10651 ng·h/g
- AUClast-brain (brain, PO 3 mg/kg): 10019 ng·h/g
- AUCINF-brain (brain, PO 10 mg/kg): 58481 ng·h/g
- AUClast-brain (brain, PO 10 mg/kg): 53716 ng·h/g
- Kp (IP 3 mg/kg): 15.1
- Kp (IP 10 mg/kg): 15.9
- Kp (PO 3 mg/kg): 6.81
- Kp (PO 10 mg/kg): 10.8
- Cmax (brain, IP 3 mg/kg): 1490 ng/g
- Tmax (brain, IP 3 mg/kg): 4 h
- half-life (brain, IP 3 mg/kg): 5.87 h
- Cmax (brain, IP 10 mg/kg): 5320 ng/g
- Tmax (brain, IP 10 mg/kg): 4 h
- half-life (brain, IP 10 mg/kg): 7.13 h
- Cmax (brain, PO 3 mg/kg): 743 ng/g
- Tmax (brain, PO 3 mg/kg): 4 h
- half-life (brain, PO 3 mg/kg): 5.8 h
- Cmax (brain, PO 10 mg/kg): 3650 ng/g
- Tmax (brain, PO 10 mg/kg): 8 h
- half-life (brain, PO 10 mg/kg): 6.76 h
- AUC(0-inf) (plasma, IP 3 mg/kg): 1320 ng·h/mL
- AUC(0-t) (plasma, IP 3 mg/kg): 1310 ng·h/mL
- Cmax (plasma, IP 3 mg/kg): 318 ng/mL
- Tmax (plasma, IP 3 mg/kg): 0.5 h
- half-life (plasma, IP 3 mg/kg): 3.88 h
- AUC(0-inf) (plasma, IP 10 mg/kg): 5040 ng·h/mL
- AUC(0-t) (plasma, IP 10 mg/kg): 4960 ng·h/mL
- Cmax (plasma, IP 10 mg/kg): 1020 ng/mL
- Tmax (plasma, IP 10 mg/kg): 0.25 h
- half-life (plasma, IP 10 mg/kg): 4.2 h
- AUC(0-inf) (plasma, PO 3 mg/kg): 1480 ng·h/mL
- AUC(0-t) (plasma, PO 3 mg/kg): 1470 ng·h/mL
- Cmax (plasma, PO 3 mg/kg): 135 ng/mL
- Tmax (plasma, PO 3 mg/kg): 2 h
- half-life (plasma, PO 3 mg/kg): 3.44 h
- AUC(0-inf) (plasma, PO 10 mg/kg): 5060 ng·h/mL
- AUC(0-t) (plasma, PO 10 mg/kg): 4990 ng·h/mL
- Cmax (plasma, PO 10 mg/kg): 561 ng/mL
- Tmax (plasma, PO 10 mg/kg): 1 h
- half-life (plasma, PO 10 mg/kg): 4.08 h
